One test relates to B. diazoefficiens WT. Put plainly: MIC of polymyxin B by E-test. The settings on record: E-test strips 0.064-1024 μg/mL, 30° C., 7 days. Format: cell-based, Bradyrhizobium diazoefficiens. Here is the method: (§1) Disk diffusion assays were used to quantify growth under oxidative, acidic and detergent stresses. For this, 4 day-old cultures of B. diazoefficiens strains grown in yeast extract-mannitol (YM) medium were washed and adjusted to an OD600 of 1.2 ml bacterial suspensions were then mixed with 100 ml of 42° C. pre-warmed YM soft agar (0.8% agar) and 5 ml portions of this mixture were poured on solid YM. Filter disks were placed at the center of the plates, and 5 μl of 5.5 M H2O2, 2 M HCl or SDS (10% w/v), were deposited on the disks. The diameters of growth inhibition areas were measured after incubation at 30° C. for 5 days.
(§2) The MIC of polymyxin B was determined by the E-test method using disk diffusion assay as described above. Strips containing a gradient of polymyxin B ranging from 0.064-1024 μg/mL (Biomérieux, Marcy-l'étoile, France) were placed in the center of plates, which were incubated at 30° C. for 7 days before recording the results. The experiment was done in triplicates.

For another test, the system named is B. diazoefficiens ΔhpnH. Put plainly: MIC of polymyxin B by E-test. Format: cell-based, Bradyrhizobium diazoefficiens. The method, then: as §1, §2

With polymyxin B, the “MIC for polymyxin B” value with B. diazoefficiens WT turned out to be 512 µg/mL; in the test on B. diazoefficiens ΔhpnH (E-test strips 0.064-1024 μg/mL, 30° C., 7 days), 48 µg/mL. Moreover, in the test on B. diazoefficiens ΔhpnH (ΔhpnH versus WT), the “fold lower MIC for polymyxin B in ΔhpnH than WT” value was found to be 10 fold.

The record behind these values is patent publication US10676406B2, “Hopanoids producing bacteria and related biofertilizers, compositions, methods and systems” (CALIFORNIA INSTITUTE OF TECHNOLOGY, priority 2015, dated 2020).
